Measurements published in the NIST ThermoML archive (doi:10.1016/j.jct.2005.09.005).
Numbers after ± are expanded uncertainties.

Experiment: molar heat capacity at constant pressure
Settings: 101.33 kPa, Crystal, Vacuum adiabatic calorimetry

[2H]O[2H] [water-d2]
Settings | molar heat capacity at constant pressure [J/K/mol]
5 K | 0.0363 ± 0.01
6.58 K | 0.0659 ± 0.011
7.08 K | 0.141 ± 0.012
7.56 K | 0.12 ± 0.011
8.12 K | 0.158 ± 0.012
8.61 K | 0.19 ± 0.012
9.07 K | 0.222 ± 0.012
9.51 K | 0.261 ± 0.012
9.94 K | 0.305 ± 0.012
10 K | 0.315 ± 0.012
10.37 K | 0.358 ± 0.013
10.8 K | 0.407 ± 0.013
11.22 K | 0.462 ± 0.014
11.65 K | 0.523 ± 0.014
12.68 K | 0.659 ± 0.015
13.4 K | 0.774 ± 0.016
14.11 K | 0.8996 ± 0.017
14.93 K | 1.051 ± 0.017
15 K | 1.07 ± 0.02
15.65 K | 1.193 ± 0.018
16.38 K | 1.337 ± 0.019
17.11 K | 1.492 ± 0.02
17.84 K | 1.652 ± 0.021
18.58 K | 1.814 ± 0.021
19.33 K | 1.982 ± 0.022
20 K | 2.125 ± 0.022
20.08 K | 2.152 ± 0.022
21.87 K | 2.524 ± 0.023
24.35 K | 3.102 ± 0.025
25 K | 3.246 ± 0.025
26.84 K | 3.651 ± 0.025
29.35 K | 4.206 ± 0.025
30 K | 4.322 ± 0.049
31.87 K | 4.729 ± 0.05
34.41 K | 5.231 ± 0.051
36.93 K | 5.723 ± 0.052
39.46 K | 6.213 ± 0.052
40 K | 6.304 ± 0.052
41.98 K | 6.674 ± 0.053
44.5 K | 7.12 ± 0.054
47.01 K | 7.558 ± 0.055
49.52 K | 8.018 ± 0.057
50 K | 8.154 ± 0.057
52.01 K | 8.514 ± 0.06
54.5 K | 9.012 ± 0.06
56.99 K | 9.486 ± 0.06
59.48 K | 9.885 ± 0.06
60 K | 9.968 ± 0.06
62.01 K | 10.32 ± 0.06
64.5 K | 10.83 ± 0.06
66.98 K | 11.22 ± 0.07
69.45 K | 11.66 ± 0.07
70 K | 11.72 ± 0.07
71.93 K | 12.02 ± 0.07
74.43 K | 12.44 ± 0.07
76.9 K | 12.74 ± 0.07
79.38 K | 13.19 ± 0.07
80 K | 13.39 ± 0.07
81.85 K | 13.77 ± 0.07
82.58 K | 13.86 ± 0.07
84.31 K | 14.14 ± 0.07
84.89 K | 14.3 ± 0.07
87.37 K | 14.74 ± 0.07
89.84 K | 15.12 ± 0.07
90 K | 15.16 ± 0.22
92.31 K | 15.57 ± 0.22
94.78 K | 15.98 ± 0.22
97.24 K | 16.41 ± 0.22
99.71 K | 16.82 ± 0.22
100 K | 16.89 ± 0.22
102.17 K | 17.25 ± 0.22
104.63 K | 17.71 ± 0.22
107.09 K | 18.15 ± 0.22
109.53 K | 18.67 ± 0.22
110 K | 18.7 ± 0.22
111.98 K | 19.03 ± 0.22
114.42 K | 19.58 ± 0.22
116.87 K | 19.92 ± 0.22
119.31 K | 20.41 ± 0.22
120 K | 20.48 ± 0.22
121.79 K | 20.81 ± 0.22
124.23 K | 21.21 ± 0.22
126.67 K | 21.62 ± 0.22
129.11 K | 22.03 ± 0.22
130 K | 22.2 ± 0.22
131.54 K | 22.45 ± 0.22
133.98 K | 22.91 ± 0.22
136.41 K | 23.27 ± 0.22
138.85 K | 23.7 ± 0.22
140 K | 23.89 ± 0.22
141.28 K | 24.08 ± 0.22
143.71 K | 24.5 ± 0.22
146.14 K | 24.9 ± 0.22
148.57 K | 25.31 ± 0.22
150 K | 25.54 ± 0.22
151 K | 25.71 ± 0.22
153.43 K | 26.1 ± 0.22
